Test results from PMC2766259 (Synapse (New York, N.Y.), 2009).
Like-named read-outs stand apart in the source and are kept apart here.

Tests used:
α4β2* nAChRs [1] = details: cited from earlier work
α4β2* nAChRs [2] = details: cited from earlier work; remark: listed apart in the source
α4β2* nAChRs [3] = details: cited from earlier work; remark: listed apart in the source
α4β2* nAChRs [4] = details: pigs, CI; ref Brust et al., 2008; cited from earlier work
[5] = Plasma metabolite analysis by column-switch HPLC after intravenous 5-[^123I]IA; type: in vivo, Humans (Homo sapiens); details: drawn simultaneously 30 minutes or later after administration
α4β2* nAChRs [6] = details: ref Saji et al., 2002; cited from earlier work
[7] = Safety and tolerability monitoring after intravenous 5-[^123I]IA; type: in vivo, Humans (Homo sapiens)
α4β2* nAChRs [8] = details: in rats; ref Saji et al., 2002; cited from earlier work
α4β2* nAChRs [9] = details: in rats; ref Saji et al., 2002; cited from earlier work; remark: listed apart in the source
[10] = target: high-affinity α4β2* neuronal nicotinic acetylcholine receptors (nAChRs) (Homo sapiens, UniProt P17787+P43681); assay: 5-[^123I]IA SPECT of the living human brain, VOI kinetic analysis; type: in vivo, Humans (Homo sapiens)
[11] = as above; type: in vivo, Humans (Homo sapiens); details: human, intravenous
α4β2* nAChRs [12] = details: acute treatment, baboon, ref Kassiou et al., 2001, cited from earlier work
α4β2* nAChRs [13] = details: human smokers, 2-[^18F]FA; ref Brody et al., 2006; cited from earlier work

Chain of high-affinity α4β2* neuronal nicotinic acetylcholine receptors (nAChRs) (P43681 29-627 limits assumed): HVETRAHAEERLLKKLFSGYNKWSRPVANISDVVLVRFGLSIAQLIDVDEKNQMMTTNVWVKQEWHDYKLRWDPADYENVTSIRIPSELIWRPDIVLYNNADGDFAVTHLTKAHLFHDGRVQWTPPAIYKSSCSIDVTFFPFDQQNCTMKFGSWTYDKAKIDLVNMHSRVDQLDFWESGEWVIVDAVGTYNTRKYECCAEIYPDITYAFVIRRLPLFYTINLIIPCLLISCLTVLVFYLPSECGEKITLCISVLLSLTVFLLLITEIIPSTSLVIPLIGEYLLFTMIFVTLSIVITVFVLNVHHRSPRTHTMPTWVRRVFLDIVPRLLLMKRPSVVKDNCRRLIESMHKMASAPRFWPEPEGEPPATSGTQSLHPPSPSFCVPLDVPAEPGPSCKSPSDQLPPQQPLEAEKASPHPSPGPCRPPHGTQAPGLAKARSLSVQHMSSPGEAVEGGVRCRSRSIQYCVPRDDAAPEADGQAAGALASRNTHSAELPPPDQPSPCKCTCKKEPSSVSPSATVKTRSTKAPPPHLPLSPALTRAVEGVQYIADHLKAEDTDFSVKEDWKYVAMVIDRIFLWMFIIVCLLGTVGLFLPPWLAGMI
Chain of high-affinity α4β2* neuronal nicotinic acetylcholine receptors (nAChRs) (P17787 26-502): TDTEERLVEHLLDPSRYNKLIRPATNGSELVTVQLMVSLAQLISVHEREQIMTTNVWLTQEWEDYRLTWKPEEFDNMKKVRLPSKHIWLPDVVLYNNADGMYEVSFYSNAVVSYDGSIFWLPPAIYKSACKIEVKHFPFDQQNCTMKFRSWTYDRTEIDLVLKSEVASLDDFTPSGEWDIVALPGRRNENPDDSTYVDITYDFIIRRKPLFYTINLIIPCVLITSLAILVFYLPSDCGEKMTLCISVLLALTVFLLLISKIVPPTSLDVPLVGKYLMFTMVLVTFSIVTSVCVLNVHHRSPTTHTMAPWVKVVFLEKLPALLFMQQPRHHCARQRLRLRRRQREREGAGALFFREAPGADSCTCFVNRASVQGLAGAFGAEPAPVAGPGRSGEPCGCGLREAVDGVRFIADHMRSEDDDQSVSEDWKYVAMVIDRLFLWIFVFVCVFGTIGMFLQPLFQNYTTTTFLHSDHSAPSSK

[18F]c1ncccc1OC[C@@H]1CCN1 [2-[^18F]FA, 2-[^18F]fluoro-3-(2(S)-azetidinylmethoxy)pyridine, reference compound]
Conclusion: peaks (α4β2* nAChRs [1]; in vivo): • In baboons 2-[^18F]FA has lower peaks than [^18F]fluoronorchloroepibatidine. In a monkey 2-[^18F]FA has lower peaks than 5-[^123I]IA. | Conclusion: safety and efficacy (α4β2* nAChRs [2]; 2 monkeys, ref Kimes et al., 2003): • 2-[^18F]FA is safe and efficacious in monkeys and humans. | Conclusion: peaks (α4β2* nAChRs [2]; a monkey, ref Dollé et al., 1999): • In baboons 2-[^18F]FA has lower peaks than [^18F]fluoronorchloroepibatidine. In a monkey 2-[^18F]FA has lower peaks than 5-[^123I]IA. | Conclusion: safety and efficacy (α4β2* nAChRs [2]; ref Chefer et al., 1999): • 2-[^18F]FA is safe and efficacious for brain imaging in monkeys.

[11CH3]N1CCC[C@H]1c1cccnc1 [[^11C](S)-(−)-nicotine, reference compound]
non-specific binding (α4β2* nAChRs [3]; human nAChR imaging, ref Scheffel et al., 2000, Villemagne et al., 1998): high degree of non-specific binding

[18F]c1ccc([C@@H]2C[C@H]3CCC[C@@H]2N3)cn1 [(−)-[^18F]NCFHEB, [^18F]norchloro-fluoro-homoepibatidine]
Conclusion: attainment of equilibrium (α4β2* nAChRs [4]): • (−)-[^18F]NCFHEB attains equilibrium before 2-[^18F]FA

[18F]c1ccc(OC[C@@H]2CCN2)cn1 [6-[^18F]FA, 6-[^18F]fluoro-3-(2(S)-azetidinylmethoxy)pyridine]
Conclusion: safety and efficacy (α4β2* nAChRs [2]; ref Horti et al., 2000): • 6-[^18F]FA is safe and efficacious for brain imaging in monkeys.

[123I]c1cncc(OC[C@@H]2CCN2)c1 [5-[^123I]IA, (S)-5-[^123I]iodo-3-(2-azetidinylmethoxy)pyridine]
extent of metabolism, arterial versus venous blood samples [5]: identical extents of metabolism | Conclusion: safety and efficacy (α4β2* nAChRs [6]): • 5-[^123I]IA is safe, efficacious in a marmoset. | Conclusion: regional uptake (α4β2* nAChRs [1]; baboon, ref Baldwin et al., 2006): • Uptake high in thalamus, moderate in cortex and basal ganglia, low in cerebellum. SPECT brain radioactivity represents5-[^123I]IA distribution | Conclusion: safety and efficacy (α4β2* nAChRs [1]; ref Fujita et al., 2000): 5-[^123I]IA is safe, efficacious in baboons. | vital signs and electrocardiograms ([7]; before administration and subsequent 24 hours): normal | abnormalities of behavior or movement (AIMS, BPRS) ([7]; before or after administration): no abnormalities of behavior or movement | Electrocardiogram, blood pressure, and pulse ([7]; during each study, twelve healthy adults): did not change | Conclusion: safety and efficacy ([7]; humans, smokers, nonsmokers, secondhand smoke exposure, current study): • 5-[^123I]IA is safe, efficacious in humans (smokers, nonsmokers, people with secondhand smoke exposure | Conclusion: metabolism and plasma protein binding by sex (α4β2* nAChRs [3]; 29 nonsmokers, ref Cosgrove et al., 2007): greater in women than in men | Conclusion: safety and efficacy (α4β2* nAChRs [3]; ref Fujita et al., 2002): • 5-[^123I]IA is safe, efficacious in humans. | Conclusion: safety and efficacy (α4β2* nAChRs [3]; ref Ishizu et al., 2004): • 5-[^123I]IA is safe, efficacious in humans. | Conclusion: safety and efficacy (α4β2* nAChRs [3]; ref Mamede et al., 2004): • 5-[^123I]IA is safe, efficacious in humans. | Conclusion: safety and efficacy (α4β2* nAChRs [3]; ref Staley et al., 2005): • 5-[^123I]IA is safe, efficacious in humans. | Conclusion: safety and efficacy (α4β2* nAChRs [3]; ref Ueda et al., 2004): • 5-[^123I]IA is safe, efficacious in humans. | Conclusion: safety and efficacy (α4β2* nAChRs [2]; ref Chefer et al., 1998): 5-[^123 I]IA is safe and efficacious for brain imaging in monkeys. | regional brain uptake (α4β2* nAChRs [8]): high uptake in the thalamus, moderate uptake in the cortex, and low uptake in the cerebellum | binding affinity relative to (−)-nicotine (α4β2* nAChRs [9]): seven times greater | binding affinity relative to A-85380 (α4β2* nAChRs [9]): comparable to A-85380 | time of maximal cerebellar uptake ([10]; after injection): 40 min | time of peak thalamic uptake ([10]; after injection): approximately 140 minutes | brain uptake ([10]; living human brain): good brain uptake | reversibility of binding ([10]; time activity curves): reversible binding with substantial dissociation by 6 h | Kp ([11]; brain (cortex), 8.1 mCi, Distribution volume (DV), Cortex, subject 1, bolus): 12.8 | Kp ([11]; brain (cortex), 8.8 mCi, Distribution volume (DV), Cortex, subject 4, bolus): 7.62 | Kp ([11]; brain (cortex), 9.3 mCi, Distribution volume (DV), Cortex, subject 3, bolus): 13 | Kp ([11]; brain (frontal lobe), 8.1 mCi, Distribution volume (DV), Frontal lobe, subject 1, bolus): 9.6 | Kp ([11]; brain (frontal lobe), 8.8 mCi, Distribution volume (DV), Frontal lobe, subject 4, bolus): 5.46 | Kp ([11]; brain (frontal lobe), 9.3 mCi, Distribution volume (DV), Frontal lobe, subject 3, bolus): 8.56 | Kp ([11]; brain (fusiform gyrus), 8.1 mCi, Distribution volume (DV), Fusiform gyrus, subject 1, bolus): 9.34 | Kp ([11]; brain (fusiform gyrus), 8.8 mCi, Distribution volume (DV), Fusiform gyrus, subject 4, bolus): 5.68 | Kp ([11]; brain (fusiform gyrus), 9.3 mCi, Distribution volume (DV), Fusiform gyrus, subject 3, bolus): 9.58 | Kp ([11]; brain (hippocampus), 8.1 mCi, Distribution volume (DV), Hippocampus, subject 1, bolus): 13.5 | Kp ([11]; caudate head, Median DV of high plasma nicotine group, Caudate head, six volunteers): 13.7 | Kp ([11]; caudate head, Median DV of low plasma nicotine group, Caudate head, six volunteers): 21.9 | Kp ([11]; cerebellum, 8.1 mCi, Distribution volume (DV), subject 1, bolus): 8.71 | Kp ([11]; cerebellum, 8.8 mCi, Distribution volume (DV), subject 4, bolus): 5.4 | Kp ([11]; cerebellum, 9.3 mCi, Distribution volume (DV), subject 3, bolus): 9.88 | Kp ([11]; cingulate cortex, Median DV of high plasma nicotine group, Cingulate cortex, six volunteers): 12.6 | Kp ([11]; cingulate cortex, Median DV of low plasma nicotine group, Cingulate cortex, six volunteers): 21.4 | Kp ([11]; cingulate gyrus, 8.1 mCi, Distribution volume (DV), subject 1, bolus): 12.6 | Kp ([11]; cingulate gyrus, 8.8 mCi, Distribution volume (DV), subject 4, bolus): 7.55 | Kp ([11]; cingulate gyrus, 9.3 mCi, Distribution volume (DV), subject 3, bolus): 12.4 | Kp ([11]; frontal cortex, Median DV of high plasma nicotine group, Frontal cortex, six volunteers): 9.6 | Kp ([11]; frontal cortex, Median DV of low plasma nicotine group, Frontal cortex, six volunteers): 18 | Kp ([11]; fusiform gyrus, Median DV of high plasma nicotine group, Fusiform gyrus, six volunteers): 9.46 | Kp ([11]; fusiform gyrus, Median DV of low plasma nicotine group, Fusiform gyrus, six volunteers): 19.9 | Kp ([11]; head of the caudate nucleus, 8.1 mCi, Distribution volume (DV), Caudate head, subject 1, bolus): 13.7 | Kp ([11]; head of the caudate nucleus, 8.8 mCi, Distribution volume (DV), Caudate head, subject 4, bolus): 7.75 | Kp ([11]; head of the caudate nucleus, 9.3 mCi, Distribution volume (DV), Caudate head, subject 3, bolus): 13.1 | Kp ([11]; hippocampus, 8.8 mCi, Distribution volume (DV), subject 4, bolus): 8.32 | Kp ([11]; hippocampus, 9.3 mCi, Distribution volume (DV), subject 3, bolus): 14.4 | Kp ([11]; occipital cortex, Median DV of high plasma nicotine group, Occiptal cortex, six volunteers): 7.15 | Kp ([11]; occipital cortex, Median DV of low plasma nicotine group, Occiptal cortex, six volunteers): 14.2 | Kp ([11]; occipital lobe, 8.1 mCi, Distribution volume (DV), Occiptal lobe, subject 1, bolus): 7 | Kp ([11]; occipital lobe, 8.8 mCi, Distribution volume (DV), Occiptal lobe, subject 4, bolus): 4.17 | Kp ([11]; occipital lobe, 9.3 mCi, Distribution volume (DV), Occiptal lobe, subject 3, bolus): 7.15 | Kp ([11]; parietal cortex, Median DV of high plasma nicotine group, Parietal cortex, six volunteers): 9.78 | Kp ([11]; parietal cortex, Median DV of low plasma nicotine group, Parietal cortex, six volunteers): 17 | Kp ([11]; parietal lobe, 8.1 mCi, Distribution volume (DV), subject 1, bolus): 9.78 | Kp ([11]; parietal lobe, 8.8 mCi, Distribution volume (DV), subject 4, bolus): 5.17 | Kp ([11]; parietal lobe, 9.3 mCi, Distribution volume (DV), subject 3, bolus): 8.71 | Kp ([11]; pons, 8.1 mCi, Distribution volume (DV), subject 1, bolus): 15.1 | Kp ([11]; pons, 8.8 mCi, Distribution volume (DV), subject 4, bolus): 9.23 | Kp ([11]; pons, 9.3 mCi, Distribution volume (DV), subject 3, bolus): 20.4 | Kp ([11]; putamen, 8.8 mCi, Distribution volume (DV), subject 4, bolus): 8.74 | Kp ([11]; putamen, 9.3 mCi, Distribution volume (DV), subject 3, bolus): 15.6 | Kp ([11]; temporal cortex, Median DV of high plasma nicotine group, Temporal cortex, six volunteers): 8.39 | Kp ([11]; temporal cortex, Median DV of low plasma nicotine group, Temporal cortex, six volunteers): 15

CN1CCC[C@H]1c1cccnc1 [(−)-nicotine]
reduction in α4β2* nAChR uptake (α4β2* nAChRs [12]; frontal cortex): 32% | reduction in α4β2* nAChR uptake (α4β2* nAChRs [12]; thalamus): 52% | plasma nicotine level at uptake of half the α4β2* nAChRs (α4β2* nAChRs [13]): 0.87 ng/mL | effect on accumulation of 5-[^123I]IA in brain (α4β2* nAChRs [8]): blocked in all brain regions

[76Br]c1ccc(C2CC3CCC2N3)cn1 (stereo not drawn) [[^76Br]BrPH, [^76Br]norchlorobromoepibatidine, reference compound]
Conclusion: safety and efficacy (α4β2* nAChRs [1]; ref Kassiou et al., 2002): [^76Br]BrPH is safe and efficacious in baboons.

[18F]c1cc(-c2cc(OC[C@@H]3CCN3)cnc2Cl)ccn1 [[^18F]NIDA522131, chloro-3-((2-(S)-azetidinyl)methoxy)-5-(2-[^18F]fluoropyridin-4-yl)pyridine]
Conclusion: safety and efficacy (α4β2* nAChRs [2]; ref Chefer et al., 2008): • [^18 F]NIDA522131 is safe and efficacious for brain imaging in monkeys.
